Data from patent US20140154330A1, “SPHERICAL PARTICLES OF CLOPIDOGREL BISULFATE, PHARMACEUTICAL COMPOSITION COMPRISING THE SAME, AND PREPARATION METHOD THEREOF” (ASTECH. CO., LTD., priority 2011, published 2014).

Key:
[1] = crystalline form; see U.S. Pat. No. 6,429,210; cited from earlier work
[2] = laser diffraction, dry module, 1 bar
Experimental: The particles obtained in Example 1 and Comparative Examples 1 and 2 were analyzed for particle size distribution using a particle size analyzer (Mastersizer 2000®, Malvern) based on laser diffraction. The samples were injected at a pressure of 1 bar with a dry module (Scirocco 2000®, Malvern). Each particle was measured for particle size (d0.1), particle size (d0.5) and particle size (d0.9).

Structure (SMILES) | d(0.1) [2] | d(0.5) [2] | d(0.9) [2] | density [1]
COC(=O)[C@H](c1ccccc1Cl)N1CCc2sccc2C1 [Form I, clopidogrel bisulfate] | – | – | – | 1.505 g/cm^2
COC(=O)[C@H](c1ccccc1Cl)N1CCc2sccc2C1 [Form II, clopidogrel bisulfate] | – | – | – | 1.462 g/cm^2
COC(=O)[C@H](c1ccccc1Cl)N1CCc2sccc2C1 [Comp. Example 2, clopidogrel bisulfate] | 8.475 μm | 85.770 μm | 168.393 μm | –

More lines, main results first:

d(0.1) [2] | d(0.5) [2] | d(0.9) [2] | Structure (SMILES) | density [1]
1.052 μm | 6.055 μm | 13.724 μm | COC(=O)[C@H](c1ccccc1Cl)N1CCc2sccc2C1 [Comp. Example 1, clopidogrel bisulfate] | –
52.536 μm | 74.567 μm | 106.074 μm | COC(=O)[C@H](c1ccccc1Cl)N1CCc2sccc2C1 [Example 1, clopidogrel bisulfate] | –
